Reference: ChEMBL document CHEMBL2380247, “Synthesis and biological evaluation of novel aliphatic amido-quaternary ammonium salts for anticancer chemotherapy: part II” (2013)

Columns and labels:
Format in all cases: functional
HCT-15 [1] = experiment: Antiproliferative activity against human HCT15 cells at 10 uM by SRB assay
NCI-H23 [2] = experiment: Antiproliferative activity against human NCI-H23 cells at 1 uM by SRB assay
NUGC-3 [3] = experiment: Antiproliferative activity against human NUGC3 cells at 10 uM by SRB assay
PC-3 [4] = experiment: Antiproliferative activity against human PC3 cells at 0.3 uM by SRB assay
PC-3 [5] = experiment: Antiproliferative activity against human PC3 cells at 0.1 uM by SRB assay
NUGC-3 [6] = experiment: Antiproliferative activity against human NUGC3 cells at 3 uM by SRB assay
HCT-15 [7] = experiment: Antiproliferative activity against human HCT15 cells by SRB assay
MDA-MB-231 [8] = experiment: Antiproliferative activity against human MDA-MB-231 cells at 0.1 uM by SRB assay
MDA-MB-231 [9] = experiment: Antiproliferative activity against human MDA-MB-231 cells at 1 uM by SRB assay
NUGC-3 [10] = experiment: Antiproliferative activity against human NUGC3 cells by SRB assay
MDA-MB-231 [11] = experiment: Antiproliferative activity against human MDA-MB-231 cells by SRB assay
ACHN [12] = experiment: Antiproliferative activity against human ACHN cells at 0.1 uM by SRB assay
HCT-15 [13] = experiment: Antiproliferative activity against human HCT15 cells at 1 uM by SRB assay
NUGC-3 [14] = experiment: Antiproliferative activity against human NUGC3 cells at 0.1 uM by SRB assay
HCT-15 [15] = experiment: Antiproliferative activity against human HCT15 cells at 0.1 uM by SRB assay
HCT-15 [16] = experiment: Antiproliferative activity against human HCT15 cells at 0.3 uM by SRB assay
ACHN [17] = experiment: Antiproliferative activity against human ACHN cells at 0.3 uM by SRB assay
ACHN [18] = experiment: Antiproliferative activity against human ACHN cells at 1 uM by SRB assay
PC-3 [19] = experiment: Antiproliferative activity against human PC3 cells at 1 uM by SRB assay
PC-3 [20] = experiment: Antiproliferative activity against human PC3 cells by SRB assay
ACHN [21] = experiment: Antiproliferative activity against human ACHN cells at 3 uM by SRB assay
NUGC-3 [22] = experiment: Antiproliferative activity against human NUGC3 cells at 0.3 uM by SRB assay
PC-3 [23] = experiment: Antiproliferative activity against human PC3 cells at 10 uM by SRB assay
ACHN [24] = experiment: Antiproliferative activity against human ACHN cells at 10 uM by SRB assay
NCI-H23 [25] = experiment: Antiproliferative activity against human NCI-H23 cells at 10 uM by SRB assay
HCT-15 [26] = experiment: Antiproliferative activity against human HCT15 cells at 3 uM by SRB assay
MDA-MB-231 [27] = experiment: Antiproliferative activity against human MDA-MB-231 cells at 3 uM by SRB assay
NCI-H23 [28] = experiment: Antiproliferative activity against human NCI-H23 cells by SRB assay
NUGC-3 [29] = experiment: Antiproliferative activity against human NUGC3 cells at 1 uM by SRB assay
MDA-MB-231 [30] = experiment: Antiproliferative activity against human MDA-MB-231 cells at 10 uM by SRB assay
MDA-MB-231 [31] = experiment: Antiproliferative activity against human MDA-MB-231 cells at 0.3 uM by SRB assay
NCI-H23 [32] = experiment: Antiproliferative activity against human NCI-H23 cells at 0.3 uM by SRB assay
NCI-H23 [33] = experiment: Antiproliferative activity against human NCI-H23 cells at 3 uM by SRB assay
PC-3 [34] = experiment: Antiproliferative activity against human PC3 cells at 3 uM by SRB assay
NCI-H23 [35] = experiment: Antiproliferative activity against human NCI-H23 cells at 0.1 uM by SRB assay
ACHN [36] = experiment: Antiproliferative activity against human ACHN cells by SRB assay

Row | Compound | growth, % of control at 10 µM (HCT-15 [1]) [%] | growth, % of control at 1 µM (NCI-H23 [2]) [%] | growth, % of control at 10 µM (NUGC-3 [3]) [%] | growth, % of control at 0.3 µM (PC-3 [4]) [%] | growth, % of control at 0.1 µM (PC-3 [5]) [%] | growth, % of control at 3 µM (NUGC-3 [6]) [%] | GI50 (HCT-15 [7]) [nM] | growth, % of control at 0.1 µM (MDA-MB-231 [8]) [%] | growth, % of control at 1 µM (MDA-MB-231 [9]) [%] | GI50 (NUGC-3 [10]) [nM] | GI50 (MDA-MB-231 [11]) [nM] | growth, % of control at 0.1 µM (ACHN [12]) [%] | growth, % of control at 1 µM (HCT-15 [13]) [%] | growth, % of control at 0.1 µM (NUGC-3 [14]) [%] | growth, % of control at 0.1 µM (HCT-15 [15]) [%] | growth, % of control at 0.3 µM (HCT-15 [16]) [%] | growth, % of control at 0.3 µM (ACHN [17]) [%] | growth, % of control at 1 µM (ACHN [18]) [%] | growth, % of control at 1 µM (PC-3 [19]) [%] | GI50 (PC-3 [20]) [nM] | further results
1 | CCCCCCCCCCCCCCCCCC(=O)NCC(C)(C)C[N+](C)(C)CC | 32.6 | 74.7 | 2.11 | 82.2 | 89.5 | 14.8 | 2740 | 87.8 | 70.4 | 420 | 1120 | 91.5 | 86.8 | 83.1 | 98 | 96.7 | 82.9 | 75.5 | 21.6 | 300 | growth, % of control at 3 µM (ACHN [21]): 50%; growth, % of control at 0.3 µM (NUGC-3 [22]): 69.6%; growth, % of control at 10 µM (PC-3 [23]): -46.2%; growth, % of control at 10 µM (ACHN [24]): 33%; growth, % of control at 10 µM (NCI-H23 [25]): -18.3%; growth, % of control at 3 µM (HCT-15 [26]): 61.6%; growth, % of control at 3 µM (MDA-MB-231 [27]): 40.4%; GI50 (NCI-H23 [28]): 980 nM; growth, % of control at 1 µM (NUGC-3 [29]): 52.5%; growth, % of control at 10 µM (MDA-MB-231 [30]): 19.9%; growth, % of control at 0.3 µM (MDA-MB-231 [31]): 79.1%; growth, % of control at 0.3 µM (NCI-H23 [32]): 97.7%; growth, % of control at 3 µM (NCI-H23 [33]): 29.8%; growth, % of control at 3 µM (PC-3 [34]): -38.3%; growth, % of control at 0.1 µM (NCI-H23 [35]): 95.1%; GI50 (ACHN [36]): 1950 nM
2 | C=CC[N+](C)(C)CCCN(C)C(=O)CCCCCCCCCCCCCCC | 58 | 65.5 | -30.4 | 98 | 98.5 | -13.9 | > 10000 | 86.5 | 66 | 360 | 800 | 81 | 103 | 105 | 97.4 | 103 | 77.3 | 53.3 | 41.9 | 430 | growth, % of control at 3 µM (ACHN [21]): 30%; growth, % of control at 0.3 µM (NUGC-3 [22]): 92.8%; growth, % of control at 10 µM (PC-3 [23]): -11.9%; growth, % of control at 10 µM (ACHN [24]): -6.41%; growth, % of control at 10 µM (NCI-H23 [25]): -13.6%; growth, % of control at 3 µM (HCT-15 [26]): 81.2%; growth, % of control at 3 µM (MDA-MB-231 [27]): 33.8%; GI50 (NCI-H23 [28]): 680 nM; growth, % of control at 1 µM (NUGC-3 [29]): 28.1%; growth, % of control at 10 µM (MDA-MB-231 [30]): 11.6%; growth, % of control at 0.3 µM (MDA-MB-231 [31]): 88.3%; growth, % of control at 0.3 µM (NCI-H23 [32]): 94.7%; growth, % of control at 3 µM (NCI-H23 [33]): 23.9%; growth, % of control at 3 µM (PC-3 [34]): 7.93%; growth, % of control at 0.1 µM (NCI-H23 [35]): 93.2%; GI50 (ACHN [36]): 470 nM
3 | C=CC[N+](CC)(CC)CCN(C)C(=O)CCCCCCCCCCCCC | 57.9 | 24.2 | -7.8 | 74.9 | 91.2 | -3.5 | > 10000 | 93.2 | 28.7 | 140 | 300 | 69 | 96.3 | 109 | 97.4 | 96.8 | 42.6 | 16.8 | 12.2 | 210 | growth, % of control at 3 µM (ACHN [21]): 8.6%; growth, % of control at 0.3 µM (NUGC-3 [22]): 45.3%; growth, % of control at 10 µM (PC-3 [23]): -21.6%; growth, % of control at 10 µM (ACHN [24]): -9%; growth, % of control at 10 µM (NCI-H23 [25]): -10%; growth, % of control at 3 µM (HCT-15 [26]): 85.1%; growth, % of control at 3 µM (MDA-MB-231 [27]): 6.6%; GI50 (NCI-H23 [28]): 240 nM; growth, % of control at 1 µM (NUGC-3 [29]): 1.1%; growth, % of control at 10 µM (MDA-MB-231 [30]): -11.6%; growth, % of control at 0.3 µM (MDA-MB-231 [31]): 82.5%; growth, % of control at 0.3 µM (NCI-H23 [32]): 74.2%; growth, % of control at 3 µM (NCI-H23 [33]): 7.8%; growth, % of control at 3 µM (PC-3 [34]): -6%; growth, % of control at 0.1 µM (NCI-H23 [35]): 88%; GI50 (ACHN [36]): 100 nM
4 | CCCCCCCCCCCCCCCCCCOP(=O)([O-])OC1CC[N+](C)(C)CC1 [PERIFOSINE] | – | – | – | – | – | – | – | – | – | 540 | – | – | – | – | – | – | – | – | – | 440 | –
